Test results published in patent publication US10913727B2, “Modulators of the integrated stress pathway” (Calico Life Sciences LLC, priority 2016, dated 2021).

Test system: HEK293T cells carrying the ATF4 luciferase reporter
Assay: ATF4-Luc assay, in vitro model of Vanishing Cell White Matter Disease (VWMD)
Format: cell-based
Settings: Homo sapiens, HEK-293T, 1 μg/mL tunicamycin, 7 hours, One Glo luminescence
Outline: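 Compound at 200 nM and tunicamycin at 1 μg/mL were given together for 7 h to HEK293T cells stably transduced with an ATF4 5′-UTR-driven firefly luciferase reporter. Read-out by luminescence, reported as EC50.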

SMILES | EC50 [nM]
Cc1cc(C(=O)NC23CC(NC(=O)COc4ccc(Cl)c(F)c4)(C2)C3)c(C)n1C1CC1 [Compound 842, N-{3-[2-(4-chloro-3-fluorophenoxy)acetamido]bicyclo[1.1.1]pentan-1-yl}-1-cyclopropyl-2,5-dimethyl-1H-pyrrole-3-carboxamide] | > 2000
Cc1cnc2cccc(C(=O)NC34CC(NC(=O)COc5ccc(Cl)c(F)c5)(C3)C4)c2n1 [Compound 843, N-{3-[2-(4-chloro-3-fluorophenoxy)acetamido]bicyclo[1.1.1]pentan-1-yl}-3-methylquinoxaline-5-carboxamide] | > 2000
O=C(COc1ccc(Cl)c(F)c1)NC12CC(NC(=O)c3nnc4n3CCCC4)(C1)C2 [Compound 844, N-{3-[2-(4-chloro-3-fluorophenoxy)acetamido]bicyclo[1.1.1]pentan-1-yl}-5,6,7,8-tetrahydro[1,2,4]triazolo[4,3-a]pyridine-3-carboxamide] | > 2000
Cc1nnsc1C(=O)NC12CC(NC(=O)COc3ccc(Cl)c(F)c3)(C1)C2 [Compound 845, N-{3-[2-(4-chloro-3-fluorophenoxy)acetamido]bicyclo[1.1.1]pentan-1-yl}-4-methyl-1,2,3-thiadiazole-5-carboxamide] | > 2000
Cc1nn(C)cc1C(=O)NC12CC(NC(=O)COc3ccc(Cl)c(F)c3)(C1)C2 [Compound 846, N-{3-[2-(4-chloro-3-fluorophenoxy)acetamido]bicyclo[1.1.1]pentan-1-yl}-1,3-dimethyl-1H-pyrazole-4-carboxamide] | 1000 to 2000
Cc1nc(C)c(C(=O)NC23CC(NC(=O)COc4ccc(Cl)c(F)c4)(C2)C3)o1 [Compound 847, N-{3-[2-(4-chloro-3-fluorophenoxy)acetamido]bicyclo[1.1.1]pentan-1-yl}-2,4-dimethyl-1,3-oxazole-5-carboxamide] | 250 to 1000
Cc1cc(C(=O)NC23CC(NC(=O)COc4ccc(Cl)c(F)c4)(C2)C3)nn1C [Compound 848, N-{3-[2-(4-chloro-3-fluorophenoxy)acetamido]bicyclo[1.1.1]pentan-1-yl}-1,5-dimethyl-1H-pyrazole-3-carboxamide] | < 50
O=C(COc1ccc(Cl)c(F)c1)NC12CC(NC(=O)c3ccc(Cn4cncn4)cc3)(C1)C2 [Compound 849, N-{3-[2-(4-chloro-3-fluorophenoxy)acetamido]bicyclo[1.1.1]pentan-1-yl}-4-[(1H-1,2,4-triazol-1-yl)methyl]benzamide] | 1000 to 2000
CCn1ccc(C(=O)NC23CC(NC(=O)COc4ccc(Cl)c(F)c4)(C2)C3)n1 [Compound 850, N-{3-[2-(4-chloro-3-fluorophenoxy)acetamido]bicyclo[1.1.1]pentan-1-yl}-1-ethyl-1H-pyrazole-3-carboxamide] | 50 to 250
CS(=O)(=O)Nc1cccc(C(=O)NC23CC(NC(=O)COc4ccc(Cl)c(F)c4)(C2)C3)c1 [Compound 851, N-{3-[2-(4-chloro-3-fluorophenoxy)acetamido]bicyclo[1.1.1]pentan-1-yl}-3-[(methanesulfonyl)amino]benzamide] | 250 to 1000
O=C(COc1ccc(Cl)c(F)c1)NC12CC(NC(=O)c3cocn3)(C1)C2 [Compound 852, N-{3-[2-(4-chloro-3-fluorophenoxy)acetamido]bicyclo[1.1.1]pentan-1-yl}-1,3-oxazole-4-carboxamide] | 1000 to 2000
NC(=O)c1nccnc1C(=O)NC12CC(NC(=O)COc3ccc(Cl)c(F)c3)(C1)C2 [Compound 853, N-2-{3-[2-(4-chloro-3-fluorophenoxy)acetamido]bicyclo[1.1.1]pentan-1-yl}pyrazine-2,3-dicarboxamide] | > 2000
O=C(COc1ccc(Cl)c(F)c1)NC12CC(NC(=O)c3onc4c3CCCC4)(C1)C2 [Compound 854, N-{3-[2-(4-chloro-3-fluorophenoxy)acetamido]bicyclo[1.1.1]pentan-1-yl}-4,5,6,7-tetrahydro-2,1-benzoxazole-3-carboxamide] | > 2000
CC(C)c1oncc1C(=O)NC12CC(NC(=O)COc3ccc(Cl)c(F)c3)(C1)C2 [Compound 855, N-{3-[2-(4-chloro-3-fluorophenoxy)acetamido]bicyclo[1.1.1]pentan-1-yl}-5-(propan-2-yl)-1,2-oxazole-4-carboxamide] | > 2000
Cc1cc(C(=O)NC23CC(NC(=O)COc4ccc(Cl)c(F)c4)(C2)C3)cnc1C [Compound 856, N-{3-[2-(4-chloro-3-fluorophenoxy)acetamido]bicyclo[1.1.1]pentan-1-yl}-5,6-dimethylpyridine-3-carboxamide] | 250 to 1000
COc1csc(C(=O)NC23CC(NC(=O)COc4ccc(Cl)c(F)c4)(C2)C3)c1 [Compound 857, N-{3-[2-(4-chloro-3-fluorophenoxy)acetamido]bicyclo[1.1.1]pentan-1-yl}-4-methoxythiophene-2-carboxamide] | 50 to 250
C[S+]([O-])c1ccccc1C(=O)NC12CC(NC(=O)COc3ccc(Cl)c(F)c3)(C1)C2 (stereo not drawn) [Compound 858, N-{3-[2-(4-chloro-3-fluorophenoxy)acetamido]bicyclo[1.1.1]pentan-1-yl}-2-(methanesulfinyl)benzamide] | 1000 to 2000

SMILES | EC50 [nM]
CCc1ocnc1C(=O)NC12CC(NC(=O)COc3ccc(Cl)c(F)c3)(C1)C2 [Compound 859, N-{3-[2-(4-chloro-3-fluorophenoxy)acetamido]bicyclo[1.1.1]pentan-1-yl}-5-ethyl-1,3-oxazole-4-carboxamide] | > 2000
N#Cc1ccsc1C(=O)NC12CC(NC(=O)COc3ccc(Cl)c(F)c3)(C1)C2 [Compound 860, N-{3-[2-(4-chloro-3-fluorophenoxy)acetamido]bicyclo[1.1.1]pentan-1-yl}-3-cyanothiophene-2-carboxamide] | 1000 to 2000
CCOc1ncccc1C(=O)NC12CC(NC(=O)COc3ccc(Cl)c(F)c3)(C1)C2 [Compound 861, N-{3-[2-(4-chloro-3-fluorophenoxy)acetamido]bicyclo[1.1.1]pentan-1-yl}-2-ethoxypyridine-3-carboxamide] | > 2000
O=C(COc1ccc(Cl)c(F)c1)NC12CC(NC(=O)c3ccccc3-n3cncn3)(C1)C2 [Compound 862, N-{3-[2-(4-chloro-3-fluorophenoxy)acetamido]bicyclo[1.1.1]pentan-1-yl}-2-(1H-1,2,4-triazol-1-yl)benzamide] | > 2000
COc1ncc(F)cc1C(=O)NC12CC(NC(=O)COc3ccc(Cl)c(F)c3)(C1)C2 [Compound 863, N-{3-[2-(4-chloro-3-fluorophenoxy)acetamido]bicyclo[1.1.1]pentan-1-yl}-5-fluoro-2-methoxypyridine-3-carboxamide] | > 2000
O=C(COc1ccc(Cl)c(F)c1)NC12CC(NC(=O)c3cnc4ncccc4n3)(C1)C2 [Compound 864, N-{3-[2-(4-chloro-3-fluorophenoxy)acetamido]bicyclo[1.1.1]pentan-1-yl}pyrido[2,3-b]pyrazine-2-carboxamide] | > 2000
Cc1nn(C)cc1-c1cc(C(=O)NC23CC(NC(=O)COc4ccc(Cl)c(F)c4)(C2)C3)no1 [Compound 865, N-{3-[2-(4-chloro-3-fluorophenoxy)acetamido]bicyclo[1.1.1]pentan-1-yl}-5-(1,3-dimethyl-1H-pyrazol-4-yl)-1,2-oxazole-3-carboxamide] | 1000 to 2000
CSc1ccccc1C(=O)NC12CC(NC(=O)COc3ccc(Cl)c(F)c3)(C1)C2 [Compound 866, N-{3-[2-(4-chloro-3-fluorophenoxy)acetamido]bicyclo[1.1.1]pentan-1-yl}-2-(methylsulfanyl)benzamide] | > 2000
Cn1c(C(=O)NC23CC(NC(=O)COc4ccc(Cl)c(F)c4)(C2)C3)ccc1S(N)(=O)=O [Compound 867, N-{3-[2-(4-chloro-3-fluorophenoxy)acetamido]bicyclo[1.1.1]pentan-1-yl}-1-methyl-5-sulfamoyl-1H-pyrrole-2-carboxamide] | > 2000
Cn1cc(C(=O)NC23CC(NC(=O)COc4ccc(Cl)c(F)c4)(C2)C3)c(C(F)(F)F)n1 [Compound 868, N-{3-[2-(4-chloro-3-fluorophenoxy)acetamido]bicyclo[1.1.1]pentan-1-yl}-1-methyl-3-(trifluoromethyl)-1H-pyrazole-4-carboxamide] | > 2000
Cc1ncoc1C(=O)NC12CC(NC(=O)COc3ccc(Cl)c(F)c3)(C1)C2 [Compound 869, N-{3-[2-(4-chloro-3-fluorophenoxy)acetamido]bicyclo[1.1.1]pentan-1-yl}-4-methyl-1,3-oxazole-5-carboxamide] | > 2000
CC(=O)Nc1nc(C(=O)NC23CC(NC(=O)COc4ccc(Cl)c(F)c4)(C2)C3)cs1 [Compound 870, 2-acetamido-N-{3-[2-(4-chloro-3-fluorophenoxy)acetamido]bicyclo[1.1.1]pentan-1-yl}-1,3-thiazole-4-carboxamide] | > 2000
Cn1cc(Cl)c(C(=O)NC23CC(NC(=O)COc4ccc(Cl)c(F)c4)(C2)C3)n1 [Compound 871, 4-chloro-N-{3-[2-(4-chloro-3-fluorophenoxy)acetamido]bicyclo[1.1.1]pentan-1-yl}-1-methyl-1H-pyrazole-3-carboxamide] | 250 to 1000
COc1nc(C)c(C(=O)NC23CC(NC(=O)COc4ccc(Cl)c(F)c4)(C2)C3)s1 [Compound 872, N-{3-[2-(4-chloro-3-fluorophenoxy)acetamido]bicyclo[1.1.1]pentan-1-yl}-2-methoxy-4-methyl-1,3-thiazole-5-carboxamide] | 50 to 250
O=C(COc1ccc(Cl)c(F)c1)NC12CC(NC(=O)c3scc4c3OCCO4)(C1)C2 [Compound 873, N-{3-[2-(4-chloro-3-fluorophenoxy)acetamido]bicyclo[1.1.1]pentan-1-yl}-2,3-dihydrothieno[3,4-b][1,4]dioxine-5-carboxamide] | > 2000
Cn1ncc(C(=O)NC23CC(NC(=O)COc4ccc(Cl)c(F)c4)(C2)C3)c1C(F)(F)F [Compound 874, N-{3-[2-(4-chloro-3-fluorophenoxy)acetamido]bicyclo[1.1.1]pentan-1-yl}-1-methyl-5-(trifluoromethyl)-1H-pyrazole-4-carboxamide] | > 2000
